Test results reported in US20100316529A1, “Anti-Microbial Systems and Methods” (priority 2001, published 2010).
Where “and” joins values, the source holds several entries; their conditions need not be identical. Equal values may be shown once.

Legend:
Ent. faeculm = test: EDTA salt dilution test, MIC/MBC; format: cell-based
Cornyeform amycolatum = test: EDTA salt dilution test, MIC/MBC; format: cell-based
Kleb. oxytoca = test: EDTA salt dilution test, MIC/MBC; format: cell-based
S. xylosus = test: EDTA salt dilution test, MIC/MBC; format: cell-based
Experimental: (§1) Protocol one: Broth dilutions:
(§2) Inoculate a 25 ml nutrient broth (Oxoid No2) in a sterile universal container with one of the following organisms; Pseudomonas aeruginosa, Proteus Mirabilis, E. coli, Klebsiella pneumoniae, Staph aureus, Coagulase negative staphylococci, Enterococcus faecalis or MRSA.
(§3) Incubate the broth at 37° C. overnight.
(§4) To make these concentrations put the EDTA needed for 10 mLs in only 9 mLs of broth in sterile universal containers, as this will be diluted further when the organisms are added.
(§5) Dilute the overnight broth cultures to 10^7 organisms/mL using more sterile nutrient broth.
(§6) Add 1 mL of this diluent to each of the EDTA series broths. This gives a final concentration of 10^6 organism/mL in the EDTA broths.
(§7) Incubate for 18 hours at 37° C.
(§8) Next day visually read the MIC's by observing the turbidity of the broths.
(§9) Plate out 1 uL of each dilution onto fresh blood agar plate and spread using a sterile plastic spreader.
(§10) Incubate overnight at 37° C.
(§11) Next day read the MBC's by performing colony counts.

Ent. faecalis = test: EDTA salt dilution test, MIC/MBC; format: cell-based
Experimental: as §1, §2, §3, §4, §5, §6, §7, §8, §9, §10, §11

Proteus mirabilis = test: EDTA salt dilution test, MIC/MBC; format: cell-based; settings: two entries
Experimental: as §1, §2, §3, §4, §5, §6, §7, §8, §9, §10, §11

S. simulans = test: EDTA salt dilution test, MIC/MBC; format: cell-based
Experimental: as §1, §2, §3, §4, §5, §6, §7, §8, §9, §10, §11

MRSA = test: EDTA salt dilution test, MIC/MBC; format: cell-based; settings: five entries, Exhibit A2
Experimental: as §1, §2, §3, §4, §5, §6, §7, §8, §9, §10, §11

Pseudomonas sp. = test: EDTA salt dilution test, MIC/MBC; format: cell-based
Experimental: as §1, §2, §3, §4, §5, §6, §7, §8, §9, §10, §11

S. lentus = test: EDTA salt dilution test, MIC/MBC; format: cell-based
Experimental: as §1, §2, §3, §4, §5, §6, §7, §8, §9, §10, §11

S. aureus = test: EDTA salt dilution test, MIC/MBC; format: cell-based; settings: five entries, Exhibit A2
Experimental: as §1, §2, §3, §4, §5, §6, §7, §8, §9, §10, §11

S. capitis = test: EDTA salt dilution test, MIC/MBC; format: cell-based; settings: two entries, Exhibit A2
Experimental: as §1, §2, §3, §4, §5, §6, §7, §8, §9, §10, §11

Kleb. pnemoniae = test: EDTA salt dilution test, MIC/MBC; format: cell-based; settings: two entries
Experimental: as §1, §2, §3, §4, §5, §6, §7, §8, §9, §10, §11

VRE = test: EDTA salt dilution test, MIC/MBC; format: cell-based; settings: two entries
Experimental: as §1, §2, §3, §4, §5, §6, §7, §8, §9, §10, §11

Pseudomonas aeruginosa = test: EDTA salt dilution test, MIC/MBC; format: cell-based; settings: two entries
Experimental: as §1, §2, §3, §4, §5, §6, §7, §8, §9, §10, §11

S. epidermidis = test: EDTA salt dilution test, MIC/MBC; format: cell-based; settings: two entries
Experimental: as §1, §2, §3, §4, §5, §6, §7, §8, §9, §10, §11

Acinetobacter baumanii = test: EDTA salt dilution test, MIC/MBC; format: cell-based; settings: two entries, Exhibit A2
Coryneform strait/amy = test: EDTA salt dilution test, MIC/MBC; format: cell-based
Ent. cloacae = test: EDTA salt dilution test, MIC/MBC; format: cell-based; settings: three entries
C. albicans = test: EDTA agar dilution method, yeasts, MIC/MBC; format: cell-based; settings: three entries, Exhibit C
Experimental: (§12) The bactericidal effects were measured as the Minimum Bactericidal Concentration (MBC), while the inhibitory effects were measured as the Minimum Inhibitory Concentration (MIC). In each case, the concentration was measured as milligrams of the disinfectant salt per milliliter of water (mg/ml).
(§13) Protocol 3: Agar dilutions.
(§14) Prepare nutrient agar plates with increasing concentrations of EDTA, 0, 0.5, 1, 1.5, 2, 4, 6, 8, 10, 15, 20, 25, 30 mg/mL, using the following method. • Pour 300 mL distilled water into a sterile glass bottle. • Add the appropriate amount of EDTA. This is the concentration desired ×300, in grams. • Once the EDTA has fully dissolved, add 8.4 g of Nutrient agar powder (Oxoid). Mix thoroughly. • Do this for each concentration of EDTA required. […] Do this until all the media is used up. Label the plates with the concentration of EDTA they contain. • These plates can then be stored, until they are needed, in a 4° C. fridge. • Use an automatic plate inoculator to inoculate each plate with 21 organisms.

C. tropicalis = test: EDTA agar dilution method, yeasts, MIC/MBC; format: cell-based; settings: Exhibit C
Experimental: as §12, §13, §14

C. guilliermondii = test: EDTA agar dilution method, yeasts, MIC/MBC; format: cell-based; settings: Exhibit C
Experimental: as §12, §13, §14

C. parapsilosis = test: EDTA agar dilution method, yeasts, MIC/MBC; format: cell-based; settings: Exhibit C
Experimental: as §12, §13, §14

C. glabrata = test: EDTA agar dilution method, yeasts, MIC/MBC; format: cell-based; settings: two entries, Exhibit C
Experimental: as §12, §13, §14

Steno. maltophilia = test: EDTA salt dilution test, MIC/MBC; format: cell-based
C. lucitaniae = test: EDTA agar dilution method, yeasts, MIC/MBC; format: cell-based; settings: Exhibit C
Text: as §13
Do this until all the media is used up.

Proteus vulgaris = test: EDTA salt dilution test, MIC/MBC; format: cell-based
Kleb. ornitholytica = test: EDTA salt dilution test, MIC/MBC; format: cell-based

O=C([O-])CN(CCN(CC(=O)[O-])CC(=O)[O-])CC(=O)[O-].[Na+].[Na+].[Na+].[Na+] [Tetrasodium EDTA]
MIC, minimum concentration required to inhibit growth (Ent. faeculm; Ent. faecuim, Exhibit A2): <500 µg/mL | MBC, minimum concentration required to kill an entire population (Ent. faeculm; Ent. faeculm, Exhibit A1): >30000 µg/mL | MBC, minimum concentration required to kill an entire population (Cornyeform amycolatum; Exhibit A1): <500 µg/mL | MIC, minimum concentration required to inhibit growth (Cornyeform amycolatum; Exhibit A2): <500 µg/mL | MBC, minimum concentration required to kill an entire population (Kleb. oxytoca; Exhibit A1): 8000 µg/mL | MIC, minimum concentration required to inhibit growth (Kleb. oxytoca; Exhibit A2): 4000 µg/mL | MBC, minimum concentration required to kill an entire population (S. xylosus; Exhibit A1): 25000 µg/mL | MIC, minimum concentration required to inhibit growth (S. xylosus; Exhibit A2): <500 µg/mL | MBC, minimum concentration required to kill an entire population (Ent. faecalis; Exhibit A1): 10000 µg/mL | MIC, minimum concentration required to inhibit growth (Ent. faecalis; Exhibit A2): 1000 µg/mL | MBC, minimum concentration required to kill an entire population (Proteus mirabilis; Exhibit A1): 20000 µg/mL | MIC, minimum concentration required to inhibit growth (Proteus mirabilis; Exhibit A2): 1000 µg/mL | MBC, minimum concentration required to kill an entire population (S. simulans; Exhibit A1): 30000 µg/mL | MIC, minimum concentration required to inhibit growth (S. simulans; Exhibit A2): 1000 µg/mL | MIC, minimum concentration required to inhibit growth (MRSA): 1000 µg/mL | MBC, minimum concentration required to kill an entire population (Pseudomonas sp.; Exhibit A1): 30000 µg/mL | MIC, minimum concentration required to inhibit growth (Pseudomonas sp.; Exhibit A2): 2000 µg/mL | MBC, minimum concentration required to kill an entire population (S. lentus; Exhibit A1): 30000 µg/mL | MIC, minimum concentration required to inhibit growth (S. lentus; Exhibit A2): 1000 µg/mL | MIC, minimum concentration required to inhibit growth (S. aureus): <500 µg/mL and 1000 µg/mL | MIC, minimum concentration required to inhibit growth (S. capitis): 1000 µg/mL and <500 µg/mL | MBC, minimum concentration required to kill an entire population (Kleb. pnemoniae; Exhibit A1): 15000 µg/mL | MIC, minimum concentration required to inhibit growth (Kleb. pnemoniae; Exhibit A2): 8000 µg/mL and 4000 µg/mL | MBC, minimum concentration required to kill an entire population (VRE; Exhibit A1): 15000 µg/mL and >30000 µg/mL | MIC, minimum concentration required to inhibit growth (VRE; Exhibit A2): 1000 µg/mL | MBC, minimum concentration required to kill an entire population (Pseudomonas aeruginosa; Exhibit A1): 20000 µg/mL | MIC, minimum concentration required to inhibit growth (Pseudomonas aeruginosa; Exhibit A2): 2000 µg/mL | MBC, minimum concentration required to kill an entire population (S. epidermidis; Exhibit A1): 1000 µg/mL and 2000 µg/mL | MIC, minimum concentration required to inhibit growth (S. epidermidis; Exhibit A2): 1000 µg/mL | MIC, minimum concentration required to inhibit growth (Acinetobacter baumanii): <500 µg/mL and 1000 µg/mL | MBC, minimum concentration required to kill an entire population (Coryneform strait/amy; Exhibit A1): <500 µg/mL | MIC, minimum concentration required to inhibit growth (Coryneform strait/amy; Exhibit A2): <500 µg/mL | MIC values compared with the other two EDTA compounds (variety of yeasts; Exhibit C): lower than the MIC values for the other two EDTA compounds | MBC values against yeasts compared with bacteria (variety of yeasts; Exhibit C versus Gram negative and Gram positive organisms): comparable to the MBC values for the Gram negative and Gram positive organisms | MBC, minimum concentration required to kill an entire population (Ent. cloacae; Exhibit A1): 20000 µg/mL | MIC, minimum concentration required to inhibit growth (Ent. cloacae; Exhibit A2): 8000 µg/mL and 10000 µg/mL | MIC's, Minimum Inhibitory Concentration (C. albicans): 500 µg/mL | MBC's, Minimum Bactericidal Concentration (C. tropicalis): 10000 µg/mL | MIC's, Minimum Inhibitory Concentration (C. tropicalis): 500 µg/mL | MBC's, Minimum Bactericidal Concentration (C. guilliermondii): 500 µg/mL | MIC's, Minimum Inhibitory Concentration (C. guilliermondii): 500 µg/mL | MBC's, Minimum Bactericidal Concentration (C. parapsilosis): 8000 µg/mL | MIC's, Minimum Inhibitory Concentration (C. parapsilosis): 500 µg/mL | MIC's, Minimum Inhibitory Concentration (C. glabrata): 500 µg/mL | MBC, minimum concentration required to kill an entire population (Steno. maltophilia; Exhibit A1): 4000 µg/mL | MIC, minimum concentration required to inhibit growth (Steno. maltophilia; Exhibit A2): 1000 µg/mL | MBC's, Minimum Bactericidal Concentration (C. lucitaniae): 6000 µg/mL | MIC's, Minimum Inhibitory Concentration (C. lucitaniae): 500 µg/mL | MBC, minimum concentration required to kill an entire population (Proteus vulgaris; Exhibit A1): 20000 µg/mL | MIC, minimum concentration required to inhibit growth (Proteus vulgaris; Exhibit A2): 4000 µg/mL | MBC, minimum concentration required to kill an entire population (Kleb. ornitholytica; Exhibit A1): 30000 µg/mL | MIC, minimum concentration required to inhibit growth (Kleb. ornitholytica; Exhibit A2): 4000 µg/mL
